The target in experiment [1] is T1, Brd4 bromodomain 1 (BRD4(1)) (Homo sapiens, UniProt O60885).
T1 construct: made in house; host or cells: E. coli BL21(DE3)
Nature of the experiment: Inhibition of tetra-acetylated histone H4 binding to Brd4 bromodomain 1 (TR-FRET). As to conditions: tetra-acetylated histone H4 peptide, first bromodomain of Brd4. Here is the method: Proteins were cloned and overexpressed with a N-terminal 6× His tag, then purified by nickel affinity followed by size exclusion chromatography. Briefly, E.coli BL21(DE3) cells were transformed with a recombinant expression vector encoding N-terminally Nickel affinity tagged bromodomains from Brd2, Brd3, Brd4. Cell cultures were incubated at 37° C. with shaking to the appropriate density and induced overnight with IPTG. The supernatant of lysed cells was loaded onto Ni-IDA column for purification. Eluted protein was pooled, concentrated and further purified by size exclusion chromatography. Fractions representing monomeric protein were pooled, concentrated, aliquoted, and frozen at −80° C. for use in subsequent experiments.
Binding of tetra-acetylated histone H4 and BET bromodomains was confirmed by a Time Resolved Fluorescence Resonance Energy Transfer (TR-FRET) method. N-terminally His-tagged bromodomains (200 nM) and biotinylated tetra-acetylated histone H4 peptide (25-50 nM, Millipore) were incubated in the presence of Europium Cryptate-labeled streptavidin (Cisbio Cat. #610SAKLB) and XL665-labeled monoclonal anti-His antibody (Cisbio Cat. #61HISXLB) in a white 96 well microtiter plate (Greiner). For inhibition assays, serially diluted test compound was added to these reactions in a 0.2% final concentration of DMSO. Final buffer concentrations were 30 mM HEPES pH 7.4, 30 mM NaCl, 0.3 mM CHAPS, 20 mM phosphate pH 7.0, 320 mM KF, 0.08% BSA). After a 2-h incubation at room temperature, the fluorescence by FRET was measured at 665 and 620 nm by a SynergyH4 plate reader (Biotek). The binding inhibitory activity was shown by a decrease in 665 nm fluorescence relative to 620 nm. IC50 values were determined from a dose response curve.
For orientation: Time-resolved FRET reads energy transfer from a long-lived donor to a nearby acceptor.

For a further experiment, the system named is c-myc. The experiment is described as follows: Inhibition of c-myc expression (mRNA, real-time PCR) in MV4-11 cells. The conditions noted are these: Human AML MV4-11 cells, 3 h, cMYC mRNA. The experiment is classed as cell-based. As for the experimental part: MV4-11 cells (CRL-9591) were plated at a density of 2.5×10^4 cells per well in 96 well U-bottom plates and treated with increasing concentrations of test compound or DMSO (0.1%) in IMDM media containing 10% FBS and penicillin/streptomycin, and incubated for 3 h at 37° C. Triplicate wells were used for each concentration. Cells were pelleted by centrifugation and harvested using the mRNA Catcher PLUS kit according to manufacturer's instructions. The eluted mRNA isolated was then used in a one-step quantitative real-time PCR reaction, using components of the RNA UltraSense™ One-Step Kit (Life Technologies) together with Applied Biosystems TaqMan® primer-probes for cMYC and Cyclophilin. Real-time PCR plates were run on a VIaTM7 real time PCR machine (Applied Biosystems), data was analyzed, normalizing the Ct values for cMYC to an internal control, prior to determining the fold expression of each sample, relative to the control.

The next experiment has as its system human AML MV-4-11 cells. The experiment is described as follows: Inhibition of cell proliferation in MV4-11 cells (CellTiter Aqueous One). The experiment is classed as cell-based. The conditions noted are these: for IC50: MV4-11, 72 h; for Cell Proliferation activity: 72 h. Here is the method:
MV4-11 cells: 96-well plates were seeded with 5×10^4 cells per well of exponentially growing human AML MV-4-11 (CRL-9591) cells and immediately treated with two-fold dilutions of test compounds, ranging from 30 μM to 0.2 μM. Triplicate wells were used for each concentration, as well as a media only and three DMSO control wells. The cells and compounds were incubated at 37° C., 5% CO2 for 72 h before adding 20 μL of the CellTiter Aqueous One Solution (Promega) to each well and incubating at 37° C., 5% CO2 for an additional 3-4 h. The absorbance was taken at 490 nm in a spectrophotometer and the percentage of proliferation relative to DMSO-treated cells was calculated after correction from the blank well. IC50 were calculated using the GraphPad Prism software.

As to `Cc1noc(C)c1-c1cc(N)c2[nH]c(=O)n([C@@H](C)c3ccccc3)c2c1` [compound 178, (S)-4-amino-6-(3,5-dimethylisoxazol-4-yl)-1-(1-phenylethyl)-1H-benzo[d]imidazol-2(3H)-one], the half-inhibitory concentration (IC50) – broadly, the point on the concentration scale where inhibition reaches its midpoint – in experiment [1] was at most 300 nM; in the experiment on c-myc, at most 300 nM; in the experiment with human AML MV-4-11 cells, 300 to 3000 nM.

For the compound `Cc1noc(C)c1-c1ccc2c(c1)N(Cc1ccccc1)[C@H](C)C(=O)N2` [compound 174, (R)-4-benzyl-6-(3,5-dimethylisoxazol-4-yl)-3-methyl-3,4-dihydroquinoxalin-2(1H)-one], the figures for the IC50 (in experiment [1]; in the experiment with c-myc; in the experiment on human AML MV-4-11 cells) were at most 300 nM, 300 to 3000 nM and 300 to 3000 nM, respectively.

On to `Cc1noc(C)c1-c1cc(F)c2[nH]c(=O)n(Cc3ccccc3)c2c1` [compound 163, 1-benzyl-6-(3,5-dimethylisoxazol-4-yl)-4-fluoro-1H-benzo[d]imidazol-2(3H)-one], for which the IC50 in experiment [1] is at most 300 nM; with c-myc it was 300 to 3000 nM; in the experiment on human AML MV-4-11 cells it was 300 to 3000 nM.

In the case of `CCNc1nc2c([N+](=O)[O-])cc(-c3c(C)noc3C)cc2n1CC1CC1` [compound 159, 1-(cyclopropylmethyl)-6-(3,5-dimethylisoxazol-4-yl)-N-ethyl-4-nitro-1H-benzo[d]imidazol-2-amine], the values for the IC50 (in experiment [1]; in the experiment on c-myc; in the experiment on human AML MV-4-11 cells) were at most 300 nM, at most 300 nM and 300 to 3000 nM, respectively.

On to `Cc1noc(C)c1-c1cnc2nc(NCCO)n(Cc3ccccc3)c2c1` [compound 196, 2-((1-benzyl-6-(3,5-dimethylisoxazol-4-yl)-1H-imidazo[4,5-b]pyridin-2-yl)amino)ethanol], for which the concentration for half-maximal inhibition (IC50) is at most 300 nM in experiment [1], at most 300 nM in the experiment on c-myc and 300 to 3000 nM in the experiment with human AML MV-4-11 cells.

With `Cc1noc(C)c1-c1cnc2nc(N3CCCC3)n(Cc3ccccc3)c2c1` [compound 195, 4-(1-benzyl-2-(pyrrolidin-1-yl)-1H-imidazo[4,5-b]pyridin-6-yl)-3,5-dimethylisoxazole], the half-maximal inhibitory concentration (IC50) (in experiment [1]; with c-myc; in the experiment on human AML MV-4-11 cells) was at most 300 nM each time.

Consider `Cc1noc(C)c1-c1cc(S(C)(=O)=O)c2nc(C)n(Cc3ccccc3)c2c1` [compound 168, 4-(1-benzyl-2-methyl-4-(methylsulfonyl)-1H-benzo[d]imidazol-6-yl)-3,5-dimethylisoxazole], for which the IC50 in experiment [1] is at most 300 nM; in the experiment on c-myc, 300 to 3000 nM; with human AML MV-4-11 cells, 300 to 3000 nM.

Regarding `Cc1noc(C)c1-c1cnc2[nH]c(=O)n(Cc3ccccc3)c2c1C` [compound 180, 1-benzyl-6-(3,5-dimethylisoxazol-4-yl)-7-methyl-1H-imidazo[4,5-b]pyridin-2(3H)-one], the IC50 was at most 300 nM in experiment [1], 300 to 3000 nM in the experiment on c-myc and 300 to 3000 nM in the experiment with human AML MV-4-11 cells.

`Cc1noc(C)c1-c1cnc2nc(C3CC3)n(Cc3ccccc3)c2c1` [compound 138, 4-(1-benzyl-2-cyclopropyl-1H-imidazo[4,5-b]pyridin-6-yl)-3,5-dimethylisoxazole]: the concentration for half-maximal inhibition (IC50) was at most 300 nM in experiment [1], at most 300 nM with c-myc and 300 to 3000 nM in the experiment with human AML MV-4-11 cells.

Regarding `Cc1noc(C)c1-c1cnc2nc(N3CCOCC3)n(CC3CCC3)c2c1` [compound 210, 4-(1-(cyclobutylmethyl)-6-(3,5-dimethylisoxazol-4-yl)-1H-imidazo[4,5-b]pyridin-2-yl)morpholine], the half-maximal inhibitory concentration (IC50) in experiment [1] is at most 300 nM; in the experiment with c-myc it was 300 to 3000 nM; with human AML MV-4-11 cells, 300 to 3000 nM.

Regarding `Cc1noc(C)c1-c1cc([N+](=O)[O-])c2nc(C)n([C@H](C)c3ccccc3)c2c1` [compound 126, (R)-3,5-dimethyl-4-(2-methyl-4-nitro-1-(1-phenylethyl)-1H-benzo[d]imidazol-6-yl)isoxazole], the half-maximal inhibitory concentration (IC50) in experiment [1] is at most 300 nM; in the experiment on c-myc, at most 300 nM; in the experiment on human AML MV-4-11 cells it was 300 to 3000 nM.

For the compound `CCNc1nc2c(N)cc(-c3c(C)noc3C)cc2n1CC1CC1` [compound 160, 1-(cyclopropylmethyl)-6-(3,5-dimethylisoxazol-4-yl)-N2-ethyl-1H-benzo[d]imidazole-2,4-diamine], the 50% inhibitory concentration (IC50) in experiment [1] is at most 300 nM; in the experiment on c-myc, 300 to 3000 nM; in the experiment with human AML MV-4-11 cells, 300 to 3000 nM.

`Cc1noc(C)c1-c1cnc2nc(C)n(CC3CCC3)c2c1` [compound 193, 4-(1-(cyclobutylmethyl)-2-methyl-1H-imidazo[4,5-b]pyridin-6-yl)-3,5-dimethylisoxazole]: the IC50 in experiment [1] is at most 300 nM; with c-myc, 300 to 3000 nM; with human AML MV-4-11 cells, 300 to 3000 nM.

As for `Cc1noc(C)c1-c1cnc2nc(C)n(Cc3ccccc3)c2c1C` [compound 181, 4-(1-benzyl-2,7-dimethyl-1H-imidazo[4,5-b]pyridin-6-yl)-3,5-dimethylisoxazole], the figures for the IC50 (in experiment [1]; with c-myc; in the experiment with human AML MV-4-11 cells) were at most 300 nM, at most 300 nM and 300 to 3000 nM, respectively.

Consider `COc1ccc(CNc2nc3ncc(-c4c(C)noc4C)cc3n2Cc2ccccc2)cc1` [compound 205, 1-benzyl-6-(3,5-dimethylisoxazol-4-yl)-N-(4-methoxybenzyl)-1H-imidazo[4,5-b]pyridin-2-amine], for which the half-inhibitory concentration (IC50) in experiment [1] is at most 300 nM; in the experiment with c-myc it was 300 to 3000 nM; in the experiment with human AML MV-4-11 cells it was 300 to 3000 nM.

Regarding `CCOc1nc2ncc(-c3c(C)noc3C)cc2n1Cc1ccccc1` [Example Compound 59, 4-(1-benzyl-2-ethoxy-1H-imidazo[4,5-b]pyridin-6-yl)-3,5-dimethylisoxazole], the IC50 in experiment [1] fell in the range of 300 to 3000 nM. Besides, the “Cell Proliferation activity” value in the experiment with human AML MV-4-11 cells is “Not active”.

In the case of `Cc1noc(C)c1-c1cc(Br)c2nc(C)n(C(=O)c3ccccc3)c2c1` [compound 200, (4-bromo-6-(3,5-dimethylisoxazol-4-yl)-2-methyl-1H-benzo[d]imidazol-1-yl)(phenyl)methanone], the half-inhibitory concentration (IC50) in experiment [1] fell in the range of 300 to 3000 nM. Besides, the “Cell Proliferation activity” value in the experiment on human AML MV-4-11 cells was “Not active”.

Take `Cc1noc(C)c1-c1cc2c([nH]c1=O)c(C)nn2Cc1ccc(F)cc1` [Example Compound 25, 6-(3,5-dimethylisoxazol-4-yl)-1-(4-fluorobenzyl)-3-methyl-1H-pyrazolo[4,3-b]pyridin-5(4H)-one]: in experiment [1], the IC50 lay within 3000 to 30000 nM. The “Cell Proliferation activity” value with human AML MV-4-11 cells is on record as “Not active”.

As for `Cc1noc(C)c1-c1cc(N)c2[nH]c(=O)n(CC3CC3)c2c1` [compound 161, 4-amino-1-(cyclopropylmethyl)-6-(3,5-dimethylisoxazol-4-yl)-1H-benzo[d]imidazol-2(3H)-one], the 50% inhibitory concentration (IC50) in experiment [1] is at most 300 nM; in the experiment on human AML MV-4-11 cells, 300 to 3000 nM.

Regarding `CC(=O)Oc1nc2ncn(Cc3ccc(F)cc3)c2cc1-c1c(C)noc1C` [compound 80, 6-(3,5-dimethylisoxazol-4-yl)-1-(4-fluorobenzyl)-1H-imidazo[4,5-b]pyridin-5-yl acetate], the IC50 in experiment [1] lay in the range of 300 to 3000 nM. Also, in the experiment with human AML MV-4-11 cells, the “Cell Proliferation activity” value is given as “Not active”.

As for `Cc1noc(C)c1-c1ccc2[nH]cc(Nc3cccc(C#N)c3)c2n1` [Example Compound 57, 3-((5-(3,5-dimethylisoxazol-4-yl)-1H-pyrrolo[3,2-b]pyridin-3-yl)amino)benzonitrile], the IC50 (in experiment [1]; with human AML MV-4-11 cells) was 3000 to 30000 nM in each case.

For `COC(=O)c1cc(-c2c(C)noc2C)cc2c1[nH]c(=O)n2Cc1ccccc1` [Example Compound 20, methyl 1-benzyl-6-(3,5-dimethylisoxazol-4-yl)-2-oxo-2,3-dihydro-1H-benzo[d]imidazole-4-carboxylate], in experiment [1], the IC50 is at most 300 nM. The “Cell Proliferation activity” value with human AML MV-4-11 cells is recorded as “Not active”.

For `Cc1noc(C)c1-c1cnc2ncn(Cc3ccccn3)c2c1` [Example Compound 47, 3,5-dimethyl-4-(1-(pyridin-2-ylmethyl)-1H-imidazo[4,5-b]pyridin-6-yl)isoxazole], in experiment [1], the IC50 is 3000 to 30000 nM. In the experiment with human AML MV-4-11 cells, the “Cell Proliferation activity” value is on record as “Not active”.

(Values after patent US10363257B2 (ZENITH EPIGENETICS LTD., priority 2013, dated 2019).)
